Literature values as cited in publication PMC4310808 (European journal of medicinal chemistry, 2014).
No end group written: not given here.

Test system: erythrocytes

GIINTLQKYYCRVRGGRCAVLSCLPKEEQIGKCSTRGRKCCRRKK (also: bicyclic or more (positions not given here)) [HβD-3, Human beta defensin-3]
Hemolytic activity at physiological salt concentrations: no hemolytic activity
